Measured values: ChEMBL document CHEMBL3044763, “Inhibitory Activities of Rhodanine Derivatives on Plant Growth” (Biosci Biotechnol Biochem, 1996)

How the values were obtained:
[1] = tested on: Brassica rapa subsp. oleifera; experiment: Growth inhibition of Brassica rapa subsp. oleifera assessed as chlorophyll b level at 3 x 10^-4 M after 7 days; assay type: functional; design: scale not given: the % may be the effect or the level left
[2] = tested on: Brassica rapa subsp. oleifera; experiment: Growth inhibition of Brassica rapa subsp. oleifera assessed as chlorophyll b level at 1 x 10^-4 M after 7 days; assay type: functional; design: scale not given: the % may be the effect or the level left
[3] = tested on: Brassica rapa subsp. oleifera; experiment: Growth inhibition of Brassica rapa subsp. oleifera assessed as chlorophyll a level at 3 x 10^-5 M after 7 days; assay type: functional; design: scale not given: the % may be the effect or the level left
[4] = tested on: Brassica rapa subsp. oleifera; experiment: Growth inhibition of Brassica rapa subsp. oleifera assessed as chlorophyll a level at 5 x 10^-5 M after 7 days; assay type: functional; design: scale not given: the % may be the effect or the level left
[5] = Toxicity in Mus musculus ddY (mouse) assessed as mortality at 300 mg/kg, ip after 4 days; assay type: organism-based; design: dose 300 mg/kg, route intraperitoneal; settings: in vivo
[6] = Toxicity in Mus musculus ddY (mouse) assessed as mortality at 275 mg/kg, ip after 4 days; assay type: organism-based; design: dose 275 mg/kg, route intraperitoneal; settings: in vivo
[7] = Toxicity in Mus musculus ddY (mouse) assessed as mortality at 325 mg/kg, ip after 4 days; assay type: organism-based; design: dose 325 mg/kg, route intraperitoneal; settings: in vivo
[8] = Toxicity in ip dosed Mus musculus ddY (mouse) assessed as mortality after 1 to 7 days; assay type: organism-based; settings: in vivo
[9] = tested on: Brassica rapa subsp. oleifera; experiment: Growth inhibition of Brassica rapa subsp. oleifera assessed as total chlorophyll level at 5 x 10^-5 M after 7 days; assay type: functional; design: scale not given: the % may be the effect or the level left
[10] = tested on: Brassica rapa subsp. oleifera; experiment: Growth inhibition of Brassica rapa subsp. oleifera assessed as total chlorophyll level at 3 x 10^-5 M after 7 days; assay type: functional; design: scale not given: the % may be the effect or the level left
[11] = tested on: Brassica rapa subsp. oleifera; experiment: Growth inhibition of Brassica rapa subsp. oleifera assessed as total chlorophyll level at 1 x 10^-4 M after 7 days; assay type: functional; design: scale not given: the % may be the effect or the level left
[12] = tested on: Brassica rapa subsp. oleifera; experiment: Growth inhibition of Brassica rapa subsp. oleifera assessed as total chlorophyll level at 3 x 10^-4 M after 7 days; assay type: functional; design: scale not given: the % may be the effect or the level left
[13] = tested on: Brassica rapa subsp. oleifera; experiment: Growth inhibition of Brassica rapa subsp. oleifera assessed as root growth at 3 x 10^-5 M after 7 days; assay type: functional
[14] = tested on: Brassica rapa subsp. oleifera; experiment: Growth inhibition of Brassica rapa subsp. oleifera assessed as root growth at 5 x 10^-5 M after 7 days; assay type: functional
[15] = tested on: Brassica rapa subsp. oleifera; experiment: Growth inhibition of Brassica rapa subsp. oleifera assessed as root growth at 1 x 10^-4 M after 7 days; assay type: functional
[16] = tested on: Brassica rapa subsp. oleifera; experiment: Growth inhibition of Brassica rapa subsp. oleifera assessed as root growth at 3 x 10^-4 M after 7 days; assay type: functional
[17] = Toxicity in Mus musculus ddY (mouse) assessed as mortality at 225 mg/kg, ip after 3 days; assay type: organism-based; design: dose 225 mg/kg, route intraperitoneal; settings: in vivo
[18] = Toxicity in Mus musculus ddY (mouse) assessed as mortality at 200 mg/kg, ip after 3 days; assay type: organism-based; design: dose 200 mg/kg, route intraperitoneal; settings: in vivo
[19] = Toxicity in Mus musculus ddY (mouse) assessed as mortality at 250 mg/kg, ip after 3 days; assay type: organism-based; design: dose 250 mg/kg, route intraperitoneal; settings: in vivo
[20] = Toxicity in Mus musculus ddY (mouse) assessed as mortality at 200 mg/kg, ip after 2 days; assay type: organism-based; design: dose 200 mg/kg, route intraperitoneal; settings: in vivo
[21] = Toxicity in Mus musculus ddY (mouse) assessed as mortality at 300 mg/kg, ip after 3 days; assay type: organism-based; design: dose 300 mg/kg, route intraperitoneal; settings: in vivo
[22] = Toxicity in Mus musculus ddY (mouse) assessed as mortality at 275 mg/kg, ip after 3 days; assay type: organism-based; design: dose 275 mg/kg, route intraperitoneal; settings: in vivo
[23] = Toxicity in Mus musculus ddY (mouse) assessed as mortality at 325 mg/kg, ip after 3 days; assay type: organism-based; design: dose 325 mg/kg, route intraperitoneal; settings: in vivo
[24] = Toxicity in Mus musculus ddY (mouse) assessed as mortality at 225 mg/kg, ip after 2 days; assay type: organism-based; design: dose 225 mg/kg, route intraperitoneal; settings: in vivo
[25] = Toxicity in Mus musculus ddY (mouse) assessed as mortality at 250 mg/kg, ip after 2 days; assay type: organism-based; design: dose 250 mg/kg, route intraperitoneal; settings: in vivo
[26] = Toxicity in Mus musculus ddY (mouse) assessed as mortality at 300 mg/kg, ip after 2 days; assay type: organism-based; design: dose 300 mg/kg, route intraperitoneal; settings: in vivo
[27] = Toxicity in Mus musculus ddY (mouse) assessed as mortality at 275 mg/kg, ip after 2 days; assay type: organism-based; design: dose 275 mg/kg, route intraperitoneal; settings: in vivo
[28] = Toxicity in Mus musculus ddY (mouse) assessed as mortality at 325 mg/kg, ip after 2 days; assay type: organism-based; design: dose 325 mg/kg, route intraperitoneal; settings: in vivo
[29] = Toxicity in Mus musculus ddY (mouse) assessed as mortality at 225 mg/kg, ip after 1 day; assay type: organism-based; design: dose 225 mg/kg, route intraperitoneal; settings: in vivo
[30] = Toxicity in Mus musculus ddY (mouse) assessed as mortality at 200 mg/kg, ip after 1 day; assay type: organism-based; design: dose 200 mg/kg, route intraperitoneal; settings: in vivo
[31] = Toxicity in Mus musculus ddY (mouse) assessed as mortality at 250 mg/kg, ip after 1 day; assay type: organism-based; design: dose 250 mg/kg, route intraperitoneal; settings: in vivo
[32] = Toxicity in Mus musculus ddY (mouse) assessed as mortality at 300 mg/kg, ip after 1 day; assay type: organism-based; design: dose 300 mg/kg, route intraperitoneal; settings: in vivo
[33] = Toxicity in Mus musculus ddY (mouse) assessed as mortality at 275 mg/kg, ip after 1 day; assay type: organism-based; design: dose 275 mg/kg, route intraperitoneal; settings: in vivo
[34] = Toxicity in Mus musculus ddY (mouse) assessed as mortality at 325 mg/kg, ip after 1 day; assay type: organism-based; design: dose 325 mg/kg, route intraperitoneal; settings: in vivo
[35] = tested on: Brassica rapa subsp. oleifera; experiment: Growth inhibition of Brassica rapa subsp. oleifera assessed as chlorophyll b level at 3 x 10^-5 M after 7 days; assay type: functional; design: scale not given: the % may be the effect or the level left
[36] = tested on: Brassica rapa subsp. oleifera; experiment: Growth inhibition of Brassica rapa subsp. oleifera assessed as chlorophyll b level at 5 x 10^-5 M after 7 days; assay type: functional; design: scale not given: the % may be the effect or the level left
[37] = tested on: Brassica rapa subsp. oleifera; experiment: Growth inhibition of Brassica rapa subsp. oleifera assessed as chlorophyll a level at 1 x 10^-4 M after 7 days; assay type: functional; design: scale not given: the % may be the effect or the level left
[38] = tested on: Brassica rapa subsp. oleifera; experiment: Growth inhibition of Brassica rapa subsp. oleifera assessed as chlorophyll a level at 3 x 10^-4 M after 7 days; assay type: functional; design: scale not given: the % may be the effect or the level left
[39] = Toxicity in Mus musculus ddY (mouse) assessed as mortality at 225 mg/kg, ip after 5 days; assay type: organism-based; design: dose 225 mg/kg, route intraperitoneal; settings: in vivo
[40] = Toxicity in Mus musculus ddY (mouse) assessed as mortality at 200 mg/kg, ip after 5 days; assay type: organism-based; design: dose 200 mg/kg, route intraperitoneal; settings: in vivo
[41] = Toxicity in Mus musculus ddY (mouse) assessed as mortality at 250 mg/kg, ip after 5 days; assay type: organism-based; design: dose 250 mg/kg, route intraperitoneal; settings: in vivo
[42] = Toxicity in Mus musculus ddY (mouse) assessed as mortality at 275 mg/kg, ip after 5 days; assay type: organism-based; design: dose 275 mg/kg, route intraperitoneal; settings: in vivo
[43] = Toxicity in Mus musculus ddY (mouse) assessed as mortality at 325 mg/kg, ip after 5 days; assay type: organism-based; design: dose 325 mg/kg, route intraperitoneal; settings: in vivo
[44] = Toxicity in Mus musculus ddY (mouse) assessed as mortality at 300 mg/kg, ip after 5 days; assay type: organism-based; design: dose 300 mg/kg, route intraperitoneal; settings: in vivo
[45] = Toxicity in Mus musculus ddY (mouse) assessed as mortality at 275 mg/kg, ip after 7 days; assay type: organism-based; design: dose 275 mg/kg, route intraperitoneal; settings: in vivo
[46] = Toxicity in Mus musculus ddY (mouse) assessed as mortality at 325 mg/kg, ip after 7 days; assay type: organism-based; design: dose 325 mg/kg, route intraperitoneal; settings: in vivo
[47] = Toxicity in Mus musculus ddY (mouse) assessed as mortality at 300 mg/kg, ip after 7 days; assay type: organism-based; design: dose 300 mg/kg, route intraperitoneal; settings: in vivo
[48] = Toxicity in Mus musculus ddY (mouse) assessed as mortality at 225 mg/kg, ip after 6 days; assay type: organism-based; design: dose 225 mg/kg, route intraperitoneal; settings: in vivo
[49] = Toxicity in Mus musculus ddY (mouse) assessed as mortality at 200 mg/kg, ip after 6 days; assay type: organism-based; design: dose 200 mg/kg, route intraperitoneal; settings: in vivo
[50] = Toxicity in Mus musculus ddY (mouse) assessed as mortality at 250 mg/kg, ip after 6 days; assay type: organism-based; design: dose 250 mg/kg, route intraperitoneal; settings: in vivo
[51] = Toxicity in Mus musculus ddY (mouse) assessed as mortality at 300 mg/kg, ip after 6 days; assay type: organism-based; design: dose 300 mg/kg, route intraperitoneal; settings: in vivo
[52] = Toxicity in Mus musculus ddY (mouse) assessed as mortality at 275 mg/kg, ip after 6 days; assay type: organism-based; design: dose 275 mg/kg, route intraperitoneal; settings: in vivo
[53] = Toxicity in Mus musculus ddY (mouse) assessed as mortality at 325 mg/kg, ip after 6 days; assay type: organism-based; design: dose 325 mg/kg, route intraperitoneal; settings: in vivo
[54] = Toxicity in Mus musculus ddY (mouse) assessed as mortality at 200 mg/kg, ip after 7 days; assay type: organism-based; design: dose 200 mg/kg, route intraperitoneal; settings: in vivo
[55] = Toxicity in Mus musculus ddY (mouse) assessed as mortality at 225 mg/kg, ip after 7 days; assay type: organism-based; design: dose 225 mg/kg, route intraperitoneal; settings: in vivo
[56] = Toxicity in Mus musculus ddY (mouse) assessed as mortality at 250 mg/kg, ip after 7 days; assay type: organism-based; design: dose 250 mg/kg, route intraperitoneal; settings: in vivo
[57] = Toxicity in Mus musculus ddY (mouse) assessed as mortality at 225 mg/kg, ip after 4 days; assay type: organism-based; design: dose 225 mg/kg, route intraperitoneal; settings: in vivo
[58] = Toxicity in Mus musculus ddY (mouse) assessed as mortality at 200 mg/kg, ip after 4 days; assay type: organism-based; design: dose 200 mg/kg, route intraperitoneal; settings: in vivo
[59] = Toxicity in Mus musculus ddY (mouse) assessed as mortality at 250 mg/kg, ip after 4 days; assay type: organism-based; design: dose 250 mg/kg, route intraperitoneal; settings: in vivo

## CN1C(=O)CSC1=S [3-METHYL-RHODANINE]
[1]
  Activity: 3.53%
[2]
  Activity: 4.85%
[3]
  Activity: 15.09%
[4]
  Activity: 14.2%
[5]
  mortality at 96 h: 80%
[6]
  mortality at 96 h: 80%
[7]
  mortality at 96 h: 100%
[8]
  LD50: 255 mg/kg
[9]
  Activity: 18.62%
[10]
  Activity: 19.75%
[11]
  Activity: 20.44%
[12]
  Activity: 14.29%
[13]
  Root length: 56.2 mm
[14]
  Root length: 53.9 mm
[15]
  Activity: 52.7 mm
[16]
  Activity: 37.5 mm
[17]
  mortality at 72 h: 20%
[18]
  mortality at 72 h: 0%
[19]
  mortality at 72 h: 40%
[20]
  mortality at 48 h: 0%
[21]
  mortality at 72 h: 80%
[22]
  mortality at 72 h: 80%
[23]
  mortality at 72 h: 100%
[24]
  mortality at 48 h: 20%
[25]
  mortality at 48 h: 20%
[26]
  mortality at 48 h: 80%
[27]
  mortality at 48 h: 80%
[28]
  mortality at 48 h: 60%
[29]
  mortality at 24 h: 20%
[30]
  mortality at 24 h: 0%
[31]
  mortality at 24 h: 20%
[32]
  mortality at 24 h: 40%
[33]
  mortality at 24 h: 20%
[34]
  mortality at 24 h: 60%
[35]
  Activity: 4.67%
[36]
  Activity: 4.44%
[37]
  Activity: 15.61%
[38]
  Activity: 10.77%
[39]
  mortality at 120 h: 20%
[40]
  mortality at 120 h: 0%
[41]
  mortality at 120 h: 40%
[42]
  mortality at 120 h: 80%
[43]
  mortality at 120 h: 100%
[44]
  mortality at 120 h: 80%
[45]
  mortality at 168 h: 80%
[46]
  mortality at 168 h: 100%
[47]
  mortality at 168 h: 80%
[48]
  mortality at 144 h: 20%
[49]
  mortality at 144 h: 0%
[50]
  mortality at 144 h: 40%
[51]
  mortality at 144 h: 80%
[52]
  mortality at 144 h: 80%
[53]
  mortality at 144 h: 100%
[54]
  mortality at 168 h: 0%
[55]
  mortality at 168 h: 20%
[56]
  mortality at 168 h: 40%
[57]
  mortality at 96 h: 20%
[58]
  mortality at 96 h: 0%
[59]
  mortality at 96 h: 40%
